Reference: patent US9040545B2, “Heterocyclyl pyrazolopyrimidine analogues as selective JAK inhibitors” (Cellzome Limited, priority 2010, dated 2015)

Target: T1, Aurora A (Homo sapiens, UniProt O14965)
T1 construct: cell lysates from Jurkat cells (ATCC TIB-152) used; endogenous in cells; host or cells: Jurkat cells (ATCC TIB-152), treated with pervanadate
T1 sequence (O14965 1-403): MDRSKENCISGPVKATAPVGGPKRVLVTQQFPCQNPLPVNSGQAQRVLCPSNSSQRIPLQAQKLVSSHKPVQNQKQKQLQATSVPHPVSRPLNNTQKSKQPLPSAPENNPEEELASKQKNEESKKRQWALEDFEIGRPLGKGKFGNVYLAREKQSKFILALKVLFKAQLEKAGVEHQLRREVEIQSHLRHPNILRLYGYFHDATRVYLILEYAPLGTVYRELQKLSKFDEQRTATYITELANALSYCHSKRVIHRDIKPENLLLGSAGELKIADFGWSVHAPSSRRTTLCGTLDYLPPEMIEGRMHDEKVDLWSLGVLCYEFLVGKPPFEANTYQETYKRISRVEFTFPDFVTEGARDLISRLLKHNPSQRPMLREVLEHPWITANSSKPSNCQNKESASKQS
Test: Kinobeads assay, Aurora A
Type: binding
Conditions: for IC50: lysate of pervanadate-treated Jurkat cells, read-out: Inhibition values (IC50) Aur A
Description: The compounds of the present invention as described in the previous examples were tested in a Kinobeads™ assay as described for ZAP-70 (WO-A 2007/137867). Briefly, test compounds (at various concentrations) and the affinity matrix with the immobilized aminopyrido-pyrimidine ligand 24 were added to cell lysate aliquots and allowed to bind to the proteins in the lysate sample. After the incubation time the beads with captured proteins were separated from the lysate. Bound proteins were then eluted and the presence of JAK2 and JAK3 was detected and quantified using specific antibodies in a dot blot procedure and the Odyssey infrared detection system. Dose response curves for individual kinases were generated and IC50 values calculated. Kinobeads™ assays for ZAP-70 (WO-A 2007/137867) and for kinase selectivity profiling (WO-A 2006/134056) have been previously described.
The affinity matrix was washed two times with 15 mL of 1×DP buffer containing 0.2% NP40 (IGEPAL® CA-630, Sigma, #I3021) and then resuspended in 1×DP buffer containing 0.2% NP40 (3% beads slurry).
5×DP buffer 250 mM Tris-HCl pH 7.4, 25% Glycerol, 7.5 mM MgCl2, 750 mM NaCl, 5 mM Na3VO4; filter the 5×DP buffer through a 0.22 μm filter and store in aliquots at −80° C. The 5×DP buffer is diluted with H2O to 1×DP buffer containing 1 mM DTT and 25 mM NaF.
Stock solutions of test compounds were prepared in DMSO. In a 96 well plate 30 μL solution of diluted test compounds at 5 mM in DMSO were prepared. Starting with this solution a 1:3 dilution series (9 steps) was prepared. For control experiments (no test compound) a buffer containing 2% DMSO was used.
Cell lysate (approximately 50 mg protein per plate) was thawed in a water bath at room temperature and then stored on ice. To the thawed cell lysate 1×DP 0.8% NP40 buffer containing protease inhibitors (1 tablet for 25 mL buffer; EDTA-free protease inhibitor cocktail; Roche Diagnostics 1873580) was added in order to reach a final protein concentration of 10 mg/mL total protein. The diluted cell lysate was stored on ice. Mixed Molt4/Ramos lysate was prepared by combining one volume of Molt4 lysate and two volumes of Ramos lysate (ratio 1:2).
To a 96 well filter plate (Multiscreen HTS, BV Filter Plates, Millipore #MSBVN1250) were added per well: 100 μL affinity matrix (3% beads slurry), 3 μL of compound solution, and 50 μL of diluted lysate. Plates were sealed and incubated for 3 hours in a cold room on a plate shaker (Heidolph tiramax 1000) at 750 rpm. Afterwards the plate was washed 3 times with 230 μL washing buffer (1×DP 0.4% NP40). The filter plate was placed on top of a collection 1 plate (Greiner bio-one, PP-microplate 96 well V-shape, 65120) and the beads were then eluted with 20 μL of sample buffer (100 mM Tris, pH 7.4, 4% SDS, 0.00025% bromophenol blue, 20% glycerol, 50 mM DTT). The eluate was frozen quickly at −80° C. and stored at −20° C.
The kinases in the eluates were detected and quantified by spotting on nitrocellulose membranes and using a first antibody directed against the kinase of interest and a fluorescently labelled secondary antibody (anti-rabbit IRDye™ antibody 800 (Licor, #926-32211). The Odyssey Infrared Imaging system from LI-COR Biosciences (Lincoln, Nebr., USA) was operated according to instructions provided by the manufacturer (Schutz-Geschwendener et al, 2004. Quantitative, two-color Western blot detection with infrared fluorescence. Published May 2004 by LI-COR Biosciences, www.licor.com).
After spotting of the eluates the nitrocellulose membrane (BioTrace NT; PALL, #BTNT30R) was first blocked by incubation with Odyssey blocking buffer (LICOR, 927-40000) for 1 hour at room temperature. Blocked membranes were then incubated for 16 hours at the temperature shown in Table 5 with the first antibody diluted in Odyssey blocking buffer (LICOR #927-40000). Afterwards the membrane was washed twice for 10 minutes with PBS buffer containing 0.2% Tween 20 at room temperature. […]

Row | Structure (SMILES) | JAK3/AurA Fold Selectivity | IC50 [µM]
1 | CN(C)CCCn1cc(Nc2ncc3cnn(Cc4cccc(N5CCOCC5)c4)c3n2)cn1 [Example 4, N-(1-(3-(Dimethylamino)propyl)-1H-pyrazol-4-yl)-1-(3-morpholinobenzyl)-1H-pyrazolo[3,4-d]pyrimidin-6-amine] | >50 Fold | 1 to 10
2 | Cn1cc(Nc2ncc3cnn(Cc4cccc(C(=O)N5CCOCC5)c4)c3n2)cn1 [Example 6, (3-((6-((1-Methyl-1H-pyrazol-4-yl)amino)-1H-pyrazolo[3,4-d]pyrimidin-1-yl)methyl)phenyl)(morpholino)methanone] | 10-50 Fold | 0.1 to 1
3 | Cn1cc(Nc2ncc3cnn(Cc4cccc(CN5CCOCC5)c4)c3n2)cn1 [Example 7, N-(1-Methyl-1H-pyrazol-4-yl)-1-(3-(morpholinomethyl)benzyl)-1H-pyrazolo[3,4-d]pyrimidin-6-amine] | 10-50 Fold | 0.1 to 1
4 | Cn1cc(Nc2ncc3cnn(Cc4cccc(N5CCCCC5)c4)c3n2)cn1 [Example 8, N-(1-Methyl-1H-pyrazol-4-yl)-1-(3-(piperidin-1-yl)benzyl)-1H-pyrazolo[3,4-d]pyrimidin-6-amine] | 10-50 Fold | 1 to 10
5 | Cn1cc(Nc2ncc3cnn(Cc4cccc(C5CCOCC5)c4)c3n2)cn1 [Example 9, N-(1-Methyl-1H-pyrazol-4-yl)-1-(3-(tetrahydro-2H-pyran-4-yl)benzyl)-1H-pyrazolo[3,4-d]pyrimidin-6-amine] | 10-50 Fold | 0.1 to 1
6 | CN1CCN(c2cccc(Cn3ncc4cnc(Nc5cnn(C)c5)nc43)c2)CC1 [Example 10, N-(1-Methyl-1H-pyrazol-4-yl)-1-(3-(4-methylpiperazin-1-yl)benzyl)-1H-pyrazolo[3,4-d]pyrimidin-6-amine] | 3-10 Fold | 0.1 to 1
7 | Cc1c(Cn2ncc3cnc(Nc4cnn(C)c4)nc32)cccc1N1CCOCC1 [Example 11, N-(1-Methyl-1H-pyrazol-4-yl)-1-(2-methyl-3-morpholinobenzyl)-1H-pyrazolo[3,4-d]pyrimidin-6-amine] | 10-50 Fold | 0.1 to 1
8 | CNC(=O)Cn1cc(Nc2ncc3cnn(Cc4cccc(N5CCOCC5)c4)c3n2)cn1 [Example 12, N-Methyl-2-(4-((1-(3-morpholinobenzyl)-1H-pyrazolo[3,4-d]pyrimidin-6-yl)amino)-1H-pyrazol-1-yl)acetamide] | 3-10 Fold | 0.1 to 1
9 | CCOC(=O)C1CCCN(c2cccc(Cn3ncc4cnc(Nc5cnn(C)c5)nc43)c2)C1 (centres unmarked) [Example 13, Ethyl 1-(3-((6-((1-methyl-1H-pyrazol-4-yl)amino)-1H-pyrazolo[3,4-d]pyrimidin-1-yl)methyl)phenyl)piperidine-3-carboxylate] | 3-10 Fold | 1 to 10

More lines, now with the values ahead:

Row | JAK3/AurA Fold Selectivity | IC50 [µM] | Structure (SMILES)
10 | 3-10 Fold | 0.1 to 1 | C[C@@H]1COCCN1c1cccc(Cn2ncc3cnc(Nc4cnn(C)c4)nc32)n1 [Example 1, (R)—N-(1-Methyl-1H-pyrazol-4-yl)-1-((6-(3-methylmorpholino)pyridin-2-yl)methyl)-1H-pyrazolo[3,4-d]pyrimidin-6-amine]
11 | 10-50 Fold | 0.1 to 1 | Cn1cc(Nc2ncc3cnn(Cc4cccc(N5CCOCC5)c4)c3n2)cn1 [Example 2, N-(1-Methyl-1H-pyrazol-4-yl)-1-(3-morpholinobenzyl)-1H-pyrazolo[3,4-d]pyrimidin-6-amine]
12 | 10-50 Fold | 0.1 to 1 | Cn1cc(Nc2ncc3cnn(Cc4cccc(N5CCOCC5)n4)c3n2)cn1 [Example 3, N-(1-Methyl-1H-pyrazol-4-yl)-1-((6-morpholinopyridin-2-yl)methyl)-1H-pyrazolo[3,4-d]pyrimidin-6-amine]
13 | 10-50 Fold | 0.1 to 1 | OCCn1cc(Nc2ncc3cnn(Cc4cccc(N5CCOCC5)c4)c3n2)cn1 [Example 5, 2-(4-((1-(3-Morpholinobenzyl)-1H-pyrazolo[3,4-d]pyrimidin-6-yl)amino)-1H-pyrazol-1-yl)ethanol]
